Laboratory results as given in PubChem BioAssay (NCI).
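Following 48 hours of exposure in 96-well plates, responses at five concentrations were used to interpolate endpoints linearly. TGI marks complete inhibition of growth.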

Assays:
Assay in all cases: NCI tumour cell line growth inhibition, 48 h
SK-OV-3 ovarian = test system: SK-OV-3 ovarian
HCT-15 colon = test system: HCT-15 colon
SNB-19 CNS = test system: SNB-19 CNS
SF-268 CNS = test system: SF-268 CNS
M14 melanoma = test system: M14 melanoma
SF-539 CNS = test system: SF-539 CNS
UACC-257 melanoma = test system: UACC-257 melanoma
NCI-H226 lung = test system: NCI-H226 lung
IGROV1 ovarian = test system: IGROV1 ovarian
HCC-2998 colon = test system: HCC-2998 colon
HOP-92 NSCLC = test system: HOP-92 NSCLC
SK-MEL-5 melanoma = test system: SK-MEL-5 melanoma
LOX IMVI melanoma = test system: LOX IMVI melanoma
SF-295 CNS = test system: SF-295 CNS
U251 CNS = test system: U251 CNS
CCRF-CEM leukemia = test system: CCRF-CEM leukemia
SW-620 colon = test system: SW-620 colon
MDA-MB-435 = test system: MDA-MB-435
ACHN renal = test system: ACHN renal
NCI-H23 lung = test system: NCI-H23 lung
OVCAR-4 ovarian = test system: OVCAR-4 ovarian
K-562 leukemia = test system: K-562 leukemia
MOLT-4 leukemia = test system: MOLT-4 leukemia
SR leukemia = test system: SR leukemia
NCI/ADR-RES ovarian = test system: NCI/ADR-RES ovarian
786-0 renal = test system: 786-0 renal
A549 NSCLC = test system: A549 NSCLC
OVCAR-5 ovarian = test system: OVCAR-5 ovarian
RPMI-8226 leukemia = test system: RPMI-8226 leukemia
HOP-62 NSCLC = test system: HOP-62 NSCLC
OVCAR-8 ovarian = test system: OVCAR-8 ovarian
MDA-MB-231 breast = test system: MDA-MB-231 breast
NCI-H522 lung = test system: NCI-H522 lung
OVCAR-3 ovarian = test system: OVCAR-3 ovarian
KM12 colon = test system: KM12 colon
COLO 205 colon = test system: COLO 205 colon
SN12C renal = test system: SN12C renal
BT-549 breast = test system: BT-549 breast
UACC-62 melanoma = test system: UACC-62 melanoma
HT29 colon = test system: HT29 colon
T-47D breast = test system: T-47D breast
TK-10 renal = test system: TK-10 renal
A498 renal = test system: A498 renal
MALME-3M melanoma = test system: MALME-3M melanoma
HS 578T breast = test system: HS 578T breast
CAKI-1 renal = test system: CAKI-1 renal
MCF7 breast = test system: MCF7 breast
PC-3 prostate = test system: PC-3 prostate
RXF 393 renal = test system: RXF 393 renal
EKVX NSCLC = test system: EKVX NSCLC
SK-MEL-2 melanoma = test system: SK-MEL-2 melanoma
HCT-116 colon = test system: HCT-116 colon
NCI-H460 lung = test system: NCI-H460 lung
UO-31 renal = test system: UO-31 renal
MDA-N = test system: MDA-N
DU-145 prostate = test system: DU-145 prostate
HL-60(TB) leukemia = test system: HL-60(TB) leukemia
SNB-75 CNS = test system: SNB-75 CNS
SK-MEL-28 melanoma = test system: SK-MEL-28 melanoma

CCc1n[nH]c(=O)n1NC(=O)CCCC(=O)O
TGI (SK-OV-3 ovarian): > 100 µM
TGI (HCT-15 colon): > 100 µM
TGI (SNB-19 CNS): > 100 µM
TGI (SF-268 CNS): > 100 µM
TGI (M14 melanoma): > 100 µM
TGI (SF-539 CNS): > 100 µM
TGI (UACC-257 melanoma): > 100 µM
TGI (NCI-H226 lung): > 100 µM
TGI (IGROV1 ovarian): > 100 µM
TGI (HCC-2998 colon): > 100 µM
TGI (HOP-92 NSCLC): > 100 µM
TGI (SK-MEL-5 melanoma): > 100 µM
TGI (LOX IMVI melanoma): > 100 µM
TGI (SF-295 CNS): > 100 µM
TGI (U251 CNS): > 100 µM
TGI (CCRF-CEM leukemia): > 100 µM
TGI (SW-620 colon): > 100 µM
TGI (MDA-MB-435): > 100 µM
TGI (ACHN renal): > 100 µM
TGI (NCI-H23 lung): > 100 µM
TGI (OVCAR-4 ovarian): > 100 µM
TGI (K-562 leukemia): > 100 µM
TGI (MOLT-4 leukemia): > 100 µM
TGI (SR leukemia): > 100 µM
TGI (NCI/ADR-RES ovarian): > 100 µM
TGI (786-0 renal): > 100 µM
TGI (A549 NSCLC): > 100 µM
TGI (OVCAR-5 ovarian): > 100 µM
TGI (RPMI-8226 leukemia): > 100 µM
TGI (HOP-62 NSCLC): > 100 µM
TGI (OVCAR-8 ovarian): > 100 µM
TGI (MDA-MB-231 breast): > 100 µM
TGI (NCI-H522 lung): > 100 µM
TGI (OVCAR-3 ovarian): > 100 µM
TGI (KM12 colon): > 100 µM
TGI (COLO 205 colon): > 100 µM
TGI (SN12C renal): > 100 µM
TGI (BT-549 breast): > 100 µM
TGI (UACC-62 melanoma): > 100 µM
TGI (HT29 colon): > 100 µM
TGI (T-47D breast): > 100 µM
TGI (TK-10 renal): > 100 µM
TGI (A498 renal): > 100 µM
TGI (MALME-3M melanoma): > 100 µM
TGI (HS 578T breast): > 100 µM
TGI (CAKI-1 renal): > 100 µM
TGI (MCF7 breast): > 100 µM
TGI (PC-3 prostate): > 100 µM
TGI (RXF 393 renal): > 100 µM
TGI (EKVX NSCLC): > 100 µM
TGI (SK-MEL-2 melanoma): > 100 µM
TGI (HCT-116 colon): > 100 µM
TGI (NCI-H460 lung): > 100 µM
TGI (UO-31 renal): > 100 µM
TGI (MDA-N): > 100 µM

CC(=O)OC/C=C(\C)CCC(Br)C(C)(C)Br (stereo unspecified)
TGI (SK-OV-3 ovarian): > 10 µM
TGI (HCT-15 colon): > 10 µM
TGI (SNB-19 CNS): > 10 µM
TGI (SF-268 CNS): > 10 µM
TGI (M14 melanoma): > 10 µM
TGI (SF-539 CNS): > 10 µM
TGI (UACC-257 melanoma): > 10 µM
TGI (NCI-H226 lung): > 10 µM
TGI (IGROV1 ovarian): > 10 µM
TGI (HCC-2998 colon): > 10 µM
TGI (DU-145 prostate): > 10 µM
TGI (SK-MEL-5 melanoma): > 10 µM
TGI (LOX IMVI melanoma): > 10 µM
TGI (SF-295 CNS): > 10 µM
TGI (U251 CNS): > 10 µM
TGI (CCRF-CEM leukemia): > 10 µM
TGI (SW-620 colon): > 10 µM
TGI (MDA-MB-435): > 10 µM
TGI (ACHN renal): > 10 µM
TGI (NCI-H23 lung): > 10 µM
TGI (OVCAR-4 ovarian): > 10 µM
TGI (K-562 leukemia): > 10 µM
TGI (MOLT-4 leukemia): > 10 µM
TGI (NCI/ADR-RES ovarian): > 10 µM
TGI (786-0 renal): > 10 µM
TGI (HL-60(TB) leukemia): > 10 µM
TGI (A549 NSCLC): > 10 µM
TGI (OVCAR-5 ovarian): > 10 µM
TGI (RPMI-8226 leukemia): > 10 µM
TGI (HOP-62 NSCLC): > 10 µM
TGI (SNB-75 CNS): > 10 µM
TGI (OVCAR-8 ovarian): > 10 µM
TGI (MDA-MB-231 breast): > 10 µM
TGI (NCI-H522 lung): > 10 µM
TGI (OVCAR-3 ovarian): > 10 µM
TGI (KM12 colon): > 10 µM
TGI (COLO 205 colon): > 10 µM
TGI (SN12C renal): > 10 µM
TGI (BT-549 breast): > 10 µM
TGI (UACC-62 melanoma): > 10 µM
TGI (HT29 colon): > 10 µM
TGI (T-47D breast): > 10 µM
TGI (TK-10 renal): > 10 µM
TGI (A498 renal): > 10 µM
TGI (MALME-3M melanoma): > 10 µM
TGI (HS 578T breast): > 10 µM
TGI (CAKI-1 renal): > 10 µM
TGI (MCF7 breast): > 10 µM
TGI (PC-3 prostate): > 10 µM
TGI (RXF 393 renal): > 10 µM
TGI (EKVX NSCLC): > 10 µM
TGI (SK-MEL-2 melanoma): > 10 µM
TGI (HCT-116 colon): > 10 µM
TGI (NCI-H460 lung): > 10 µM
TGI (SK-MEL-28 melanoma): > 10 µM
TGI (MDA-N): > 10 µM
